# Laboratory results published in US20070015279A1, “Methods of Selecting Pancreatic Endocrine Cells Using Protein Synthesis Inhibitors” (AmCyte Inc., priority 2005, published 2007).
# Test system: HD487B cells
# Test: Puromycin selection of HD487B cells, insulin mRNA by quantitative RT-PCR
# Format: cell-based, human
# Procedure: In an attempt to see if other protein synthesis inhibitors have similar effect as hygromycin B on cultured pancreatic cells puromycin was used in a pilot experiment. We treated P0 cells from HD487B with puromycin at either 2.5 or 5 μg/mL concentrations in SM95/M7 (4:1) for overnight. The cells were recovered in the same medium without puromycin till reaching confluence and passaged to P1. P1 and P2 cells were cultured in SM95/M7 (9:1) with Wnt3a (20 ng/mL). P3 and P4 cells were cultured in SM95/M7 (4:1) with bFGF (50 ng/mL). P5 cells were cultured in maturation medium. We took portions of cells at each passages and analyzed insulin gene expression by quantitative RT-PCR and normalized to β-actin expression. Cells that survived puromycin treatment also expressed insulin at passages 1, 2, 3, 4, and 5.
structure (smiles),measurement,setting,value
COc1ccc(C[C@H](N)C(=O)N[C@H]2[C@@H](O)[C@H](n3cnc4c(N(C)C)ncnc43)O[C@@H]2CO)cc1 [puromycin],Insulin expression (normalized to β-actin),"HD487B P1, 2.5 μg/mL @ P0",3.96E−01
same,Insulin expression (normalized to β-actin),"HD487B P1, 5 μg/mL @ P0",8.48E−02
same,Insulin expression (normalized to β-actin),"HD487B P2, 2.5 μg/mL @ P0",1.39E−02
same,Insulin expression (normalized to β-actin),"HD487B P2, 5 μg/mL @ P0",2.51E−02
same,Insulin expression (normalized to β-actin),"HD487B P3, 2.5 μg/mL @ P0",9.89E−03
same,Insulin expression (normalized to β-actin),"HD487B P3, 5 μg/mL @ P0",2.63E−02
same,Insulin expression (normalized to β-actin),"HD487B P4, 2.5 μg/mL @ P0",3.46E−03
same,Insulin expression (normalized to β-actin),"HD487B P5, 2.5 μg/mL @ P0",1.83E−03
